Measurements as given in patent publication US20260109727A1, “RNA CONSTRUCTS AND USES THEREOF” (BioNTech SE, priority 2022, published 2026).
Values belong to the compound of their own block, whether it stands above or below them.

Columns and labels:
human PBMCs [1] = assay: XTT cytotoxicity test of PBMCs transfected with LPX-formulated EPO mRNA; type: cell-based; conditions: 24 h, up to 1 μg/well mRNA
Experimental: Human buffy coats from healthy individuals were obtained from the Faculty of Medicine of Johannes Gutenberg University, Mainz and used to isolate peripheral blood mononuclear cells (PBMCs) on a Ficoll-Paque™ PLUS (Cytiva, Marlborough, MA, USA) density gradient. In preparation for mRNA transfection, cryopreserved PBMCs were thawed and seeded into 96-well plates at a density of 5×10^5 cells per well in 190 μL RPMI medium supplemented with 1% non-essential amino acids (NEAA), 1% sodium pyruvate and 10% Fetal Bovine Serum (Merck, Germany). Cells were maintained at 37° C. with 5% CO2 until transfection with 0.5, 1.5, 5.0 and 15 μg/ml lipoplex-formulated EPO mRNA (LPX-RNA), as described in Kranz, L. M., et al. (2016) Nature, 534, 396-401. The complexed RNA (10 μl per well) was added in triplicates and supernatants were collected at 24 h after transfection to perform single cell cytotoxicity assay and to measure the cytokine/chemokine profile. […] The levels of IL-6 (Interleukin 6), TNF-α (Tumor necrosis factor alpha), IL-1 (Interleukin 1 beta), IFN-γ (Interferon gamma), MCP-1 (Monocyte Chemoattractant Protein-1), […] (Macrophage inflammatory protein 1 beta) and IL-10 (Interleukin 10) were quantified 24 h after the mRNA transfection. […]

human PBMCs [2] = assay: Cytokine/chemokine secretion in human PBMCs (MSD V-PLEX); type: cell-based; conditions: for proinflammatory cytokine/chemokine responses compared to m1Ψ-modified mRNA: lipid-complexed U-containing mRNA, even at lowest dose 0.5 μg/ml
Experimental: Human buffy coats from healthy individuals were obtained from the Faculty of Medicine of Johannes Gutenberg University, Mainz and used to isolate peripheral blood mononuclear cells (PBMCs) on a Ficoll-Paque™ PLUS (Cytiva, Marlborough, MA, USA) density gradient. In preparation for mRNA transfection, cryopreserved PBMCs were thawed and seeded into 96-well plates at a density of 5×10^5 cells per well in 190 μL RPMI medium supplemented with 1% non-essential amino acids (NEAA), 1% sodium pyruvate and 10% Fetal Bovine Serum (Merck, Germany). Cells were maintained at 37° C. with 5% CO2 until transfection with 0.5, 1.5, 5.0 and 15 μg/ml lipoplex-formulated EPO mRNA (LPX-RNA), as described in Kranz, L. M., et al. (2016) Nature, 534, 396-401. The complexed RNA (10 μl per well) was added in triplicates and supernatants were collected at 24 h after transfection to perform single cell cytotoxicity assay and to measure the cytokine/chemokine profile. To determine the cell viability and the production of selected cytokines/chemokines, supernatants from human PBMCs transfected with LPX-RNA were subjected to XTT cytotoxicity test using Cell Proliferation Kit II (Sigma-Aldrich) and cytokine/chemokine profile analysis using the Meso Scale Discovery V-PLEX Custom Human Biomarkers Proinflammatory and Chemokine Panel (Meso Scale Diagnostics—MSD, Rockville, MD, USA) according to the manufacturer's instructions, respectively. In regards of cytokine/chemokine profile analysis, a sample dilution of 1:5 (supernatant:MSD diluent) was used in each experiment. The levels of IL-6 (Interleukin 6), TNF-α (Tumor necrosis factor alpha), IL-1 (Interleukin 1 beta), IFN-γ (Interferon gamma), MCP-1 (Monocyte Chemoattractant Protein-1), […] (Macrophage inflammatory protein 1 beta) and IL-10 (Interleukin 10) were quantified 24 h after the mRNA transfection. […] This low immunogenicity can be directly attributed to the nucleoside modifications incorporated into the mRNA. To illustrate this, cells treated with lipid-complexed U-containing mRNA capped with compound I′-1, CC114 and CC413 induced much higher proinflammatory cytokine/chemokine responses even at their lowest dose (0.5 μg/ml) when compared to m1Ψ-modified mRNA (FIG. 6).
To test the effect of the cap types and mRNA 5′end on immunogenicity in human peripheral blood monocyte cells (PBMCs) we compared changes in levels of cytokines and chemokines after application of Lipoplex (LPX)-formulated EPO mRNAs. First, we compared the impact of m1Ψ-mRNA capped with I′-6 containing a UAGU 5′end vs. CC413 (AGAAU 5′end) (FIG. 12). […] Second, we compared capped EPO uRNA with I′-6 or I′-1 (FIG. 14). In this case both mRNAs had the same TAGT 5′end. […] Thus, benefit of I′-6 in decreasing the immunogenicity and thus increasing safety was found when I′-6 was used.

[3] = system: human primary hepatocytes; assay: EPO secretion in human primary hepatocytes transfected with TransIT-EPO mRNA (ELISA); type: cell-based
Experimental: To measure the translational efficiency of EPO mRNA capped with compound I′-1, compound I′-6, CC114, and CC413 in vitro, human primary hepatocytes were seeded into 96-well plates at a density of 2.5×10^4 cells per well and were transfected with mRNA samples (0.1 μg) complexed with TransIT reagent (Mirus Bio, Madison, WI, USA) in a final volume of 200 μL in InVitroGRO CP Medium (Sigma-Aldrich) supplemented with Thorpedo Antibiotic Mix (Sigma-Aldrich). To quantify EPO levels, the supernatant was collected at 1, 2, 3, 4, 5 and 6 day after transfection and EPO levels were analyzed by mouse Erythropoietin DuoSet ELISA kit (R&D Systems, Minneapolis, MN, USA) according to the manufacturer's instructions.
(§1) In each in vivo experiment in order to measure the translational efficiency and to determine the functionality of EPO mRNA capped with I′-1, I′-2, I′-3, I′-5, I′-6, I′-9, I′-12, I′-13, I′-16, CC114, and CC413 in vivo, female BALB/c mice from Jackson Laboratory (Bar Harbor, ME, USA) at the age of eight to ten weeks were used for in accordance with federal policies on animal research (Ethics approval number: G19-12-074). In each case, mice (n=3/group) were injected intravenously (i.v.) with 3 μg TransIT-complexed (Mirus Bio) EPO mRNAs in a final volume of 200 μL Dulbecco's modified Eagle medium (DMEM). Mice used as controls were injected with TransIT-reagent diluted in DMEM but without RNA. To measure hematocrits and EPO levels in the individual mice that were injected with EPO mRNA capped with I′-6, I′-1, CC114, and CC413 and complexed with TransIT-reagent, 18 μL of blood was collected at the indicated times (FIG. 8B) and centrifuged in Drummond microcaps glass capillary tubes (20 μl volume, Merck, Germany) as described (19). After determination of the hematocrit, capillary tubes were snapped open, and the plasma was collected to measure EPO levels and analyzed for mouse Erythropoietin DuoSet ELISA kit (R&D Systems) according to the manufacturer's instructions. […] EPO RNA containing m1Ψ modifications translated 2-3-fold, 5-fold, and 10-fold more than U-containing mRNAs at 6-24, 48 and 72 hours after injections, respectively. (FIG. 8A). […] To address translation of I′-6-capped mRNA in human primary hepatocytes, EPO level was measured from supernatants transfected using 0.1 μg/well TransIT-formulated I′-6- or CC114-capped uRNA (FIG. 13).
To test if various uridine (U) or pseudouridine (Ψ) derivatives of cap analogues can improve translation in human primary hepatocytes, we first measured EPO secretion after application of EPO-encoding Ψ-mRNA capped with compounds described herein analog bearing pseudouridine (I′-3) or CC413 (no modification). […] In addition, all tested modification bearing caps led to increase in EPO secretion at 24 h and 48 h when compared to the unmodified I′-1 (FIG. 16).

BALB/c mice [4] = assay: Plasma EPO in mice IV injected with 3 μg TransIT-complexed EPO mRNA (ELISA); type: in vivo
Experimental: (§2) To confirm in vitro data, female BALB/c mice from Jackson Laboratory (Bar Harbor, ME, USA) at the age of eight to ten weeks were used for in vivo experiment in accordance with federal policies on animal research (Ethics approval number: G18-12-027). Mice (n=3/group) were injected intravenously (i.v.) with 3 μg TransIT-complexed (Mirus Bio) EPO mRNAs in a final volume of 200 μL Dulbecco's modified Eagle medium (DMEM). Mice used as controls were injected with TransIT-reagent diluted in DMEM but without RNA. Mice were injected with EPO mRNA complexed with TransIT-reagent and EPO levels in plasma were measured using ELISA (FIG. 8A). Hematocrit was measured from 18 μl of blood that was collected at the indicated times using centrifugation in Drummond microcaps glass capillary tubes (20 μl volume, Merck, Germany) as described (20) (FIG. 8B). After determination of the hematocrit, capillary tubes were snapped open, and the plasma was collected to measure EPO levels and analyzed for mouse Erythropoietin DuoSet ELISA kit (R&D Systems) according to the manufacturer's instructions. […] EPO RNA containing m1Ψ translated two-fold more than U-containing mRNA at each time points (FIG. 8A). Both compound I′-1 and compound I′-6 are suitable for translation of the encoded protein and each cap analog can be used for synthesizing of non-replicating functional mRNAs (FIG. 8A, 8B).
as §1
To this end, we generated U-containing as well as m1Ψ-modified EPO RNA capped with cap analogs which belong to either the non-ARCA (I′-13) or ARCA (I′-6) classes. Moreover, the latter ones contain 2′-OMe (I′-5) or 3′-OMe (I′-6) at the ribose of the m7G moiety. Three μg of TransIT-complexed EPO mRNA capped with nucleoside modification-containing NeoCaps I′-13, I′-5 and I′-6 cap analogs were injected into mice intravenously. After that EPO level of plasma collected from mice was measured at 6, 24 and 48 hours after administration to compare the translational activity of mRNA capped with NeoCaps with U-containing or m1Ψ-modified mRNA capped with non-modified ARCA 3′OMe I′-1.
Plasma EPO level of mice injected with 3 μg of each TransIT-complexed mRNA was determined using murine EPO-specific ELISA at 6, 24, 48 and 72 hours after intravenous administration. […]

BALB/c mice [5] = assay: Hematocrit in mice IV injected with 3 μg TransIT-complexed EPO mRNA; type: in vivo; conditions: D14 after injection
Experimental: as §2, §1

proinflammatory cytokine/chemokine responses compared to m1Ψ-modified mRNA (human PBMCs [2]): much higher
Compound: (m2^7,3′-O)Gppp(m^2′-O)ApG [CC413, reference compound]
translational efficiency and biological activity (murine EPO, hematocrit %) of EPO mRNA (BALB/c mice [4]; FIG. 1, CC413 vs CC113): significantly better than CC113
decrease of hematocrit values from D14 (BALB/c mice [5]): started to decrease at D14

proinflammatory cytokine/chemokine responses compared to m1Ψ-modified mRNA (human PBMCs [2]): much higher
Compound: (m^7)Gppp(m^2′-O)ApU [CC114, reference compound]
decrease of hematocrit values from D14 (BALB/c mice [5]): started to decrease at D14

Second part, the compound before the results:

Compound: COC1C(OP(=O)([O-])OC[C@H]2O[C@@H](n3ccc(=O)[nH]c3=O)C(O)C2O)[C@@H](COP(=O)(O)OP(=O)(O)OP(=O)(O)OC[C@H]2O[C@@H](n3c[n+](C)c4c(O)nc(N)nc43)C(O)C2OC)O[C@H]1n1cnc2c(N)ncnc21 (stereo partly drawn) [I′-1, m^7G(^3′-OMe)pppA(2′-OMe)pU]
toxic effect on cell viability (XTT) (human PBMCs [1]): no toxic effect
proinflammatory cytokine/chemokine responses compared to m1Ψ-modified mRNA (human PBMCs [2]): much higher
cytokines/chemokines, compared with CC413 (human PBMCs [2]; unmodified mRNA, 24 h): significantly higher
translation (EPO secretion) compared to CC413 ([3]; 0.1 μg/well TransIT-EPO mRNA, 24 hrs): higher translation
translation compared to CC413 ([3]; unmodified RNA, each time point after transfection (day 1-6)): higher translation
translational capacity compared with m1Ψ in cap (I′-6) and mRNA (BALB/c mice [4]; U-containing mRNA, each time point): significantly lower
translation of ARCA analogs compared to non-ARCA caps CC114 and I′-13 (BALB/c mice [4]; regardless of the RNA modification): significantly better
decrease of hematocrit values from D14 (BALB/c mice [5]): not observed

Compound: COC1C(OP(=O)(O)OC[C@H]2O[C@@H](c3c[nH]c(=O)[nH]c3=O)C(O)C2O)[C@@H](COP(=O)(O)OP(=O)([O-])OP(=O)(O)OC[C@H]2O[C@@H](n3c[n+](C)c4c(O)nc(N)nc43)C(O)C2OC)O[C@H]1n1cnc2c(N)ncnc21 (stereo partly drawn) [I′-3, m^7G(^3′-OMe)pppA(2′-OMe)pΨ]
level of EPO compared to CC413 ([3]; EPO-encoding Ψ-mRNA, 24 h and 48 h): higher
EPO level compared to I′-6 (BALB/c mice [4]; m1Ψ-modified mRNA, 48 and 72 hours after injection): equal or slightly less

Compound: COC1C(OP(=O)(O)OC[C@H]2O[C@@H](c3cn(C)c(=O)[nH]c3=O)C(O)C2O)[C@@H](COP(=O)(O)OP(=O)([O-])OP(=O)(O)OC[C@H]2O[C@@H](n3c[n+](C)c4c(O)nc(N)nc43)C(O)C2O)O[C@H]1n1cnc2c(N)ncnc21 (stereo partly drawn) [I′-13, m^7GpppA(2′-OMe)pm^1Ψ]
translation of m1Ψ-mRNA capped with I′-13 relative to U-mRNA capped with CC114 (BALB/c mice [4]; 6 h after injection): 8 fold
translation of m1Ψ-mRNA capped with I′-13 relative to U-mRNA capped with CC114 (BALB/c mice [4]; 24 h after injection): 25 fold
translation compared to mRNA capped with non-modified ARCA cap (BALB/c mice [4]; each tested time point (6, 24, 48 h), regardless of the mRNA modification): at least two-fold better
